In PubChem BioAssay (NCI):
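A five-concentration, 48-hour dose response in 96-well plates underlies each endpoint, interpolated linearly between surrounding concentrations. Abbreviation: GI50, concentration required for 50% inhibition of growth. TGI denotes the concentration required for complete inhibition of growth.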

Tests used:
Test in all cases: NCI-60 cell line screen, 48 h
[1] = tested on: HS 578T breast
[2] = tested on: MDA-N
[3] = tested on: RXF-631 renal
[4] = tested on: SNB-78 CNS
[5] = tested on: DMS 114 small cell lung
[6] = tested on: LXFL 529 NSCLC
[7] = tested on: DLD-1 colon
[8] = tested on: XF 498 CNS
[9] = tested on: M19-MEL melanoma

| Structure (SMILES) | GI50 [1] | TGI [1] | TGI [5] | TGI [6] | TGI [7] | TGI [9] | further results |
| --- | --- | --- | --- | --- | --- | --- | --- |
| NCCOCCOCCNc1nc(Cc2ccccc2)nc(NCCCN2CCCC2=O)n1 | > 100 µM | > 100 µM | – | – | – | – | – |
| CC(C)c1cc(-c2n[nH]c(=O)n2-c2ccc3c(ccn3C)c2)c(O)cc1O | 0.682 µM | 90.1 µM | – | – | – | – | – |
| CCc1nccc2c1nc(-c1nonc1N)n2CC | > 19.7 µM | > 25 µM | – | – | – | – | – |
| CCCCCCCCCCC(C(=O)O)C1(C(=O)O)CCC(=O)O1 (stereo not drawn) | – | > 100 µM | – | – | – | – | TGI [2]: > 100 µM |
| CC1(C)CC(=O)c2c(C(F)(F)F)nn(-c3ccc(C(N)=O)c(NC4CCC(OC(=O)CN)CC4)c3)c2C1 (stereo not drawn) | 9.73 µM | > 100 µM | – | – | – | – | – |
| Cc1cc(N(CCCl)CCCl)ccc1C=Nc1ccc(-c2csc(Cc3ccccc3)n2)cc1 | 20.3 µM | 83.7 µM | – | – | – | – | – |
| CCCNC1=C(C(=O)OCC)C(=O)CO1 | – | – | > 100 µM | > 100 µM | > 100 µM | > 100 µM | TGI [3]: > 100 µM; TGI [4]: > 100 µM; TGI [8]: > 100 µM |
| CCCC(=O)OC1C(C(O)CO)OC2OC(C)(C)OC21 (stereo not drawn) | – | > 100 µM | > 100 µM | – | > 100 µM | > 100 µM | TGI [4]: > 100 µM; TGI [2]: > 100 µM; TGI [8]: > 100 µM |
| Cn1cccc1-c1cc(-c2cccs2)nc(N)c1C#N | > 100 µM | > 100 µM | – | – | – | – | – |
| N#C/C(=C\c1ccc(O)c(O)c1)C(N)=S | – | – | > 100 µM | > 100 µM | > 100 µM | > 100 µM | TGI [4]: > 100 µM; TGI [8]: > 100 µM |
| CCCCCCCCCCCC(=O)OCC1OC(n2cc(F)c(=O)[nH]c2=O)C(NC(=O)OCc2ccccc2)C(OC(=O)CCCCCCCCCCC)C1O (stereo not drawn) | – | – | > 100 µM | > 100 µM | > 100 µM | > 100 µM | TGI [3]: > 100 µM; TGI [4]: > 100 µM; TGI [8]: > 100 µM |
| CC(CCC(=O)O)[C@H]1CCC2[C@@H]3CC[C@@H]4CC(O)CC[C@]4(C)C3CC[C@@]21C (stereo partly drawn) | – | – | – | – | – | – | GI50 [2]: 60.6 µM; TGI [2]: > 100 µM |
| NC1C[C@H](n2cc(/C=C/Br)c(=O)[nH]c2=O)C[C@@H]1CO (stereo partly drawn) | – | – | > 100 µM | > 100 µM | > 100 µM | > 100 µM | – |
| COc1ccc2c(c1)/C(=C\c1c(C)nc3sccn13)C(=O)N2 | 0.224 µM | 15.2 µM | – | – | – | – | – |
| CC[C@@H](C(=O)O)C1CC[C@H](C)C([C@@H](C)[C@H](O)[C@H](C)C(=O)[C@H](CC)C2O[C@]3(C=C[C@@H](O)[C@]4(CC[C@@](C)(C5CC[C@](O)(CC)[C@H](C)O5)O4)O3)[C@H](C)C[C@@H]2C)O1 (stereo partly drawn) | 0.0767 µM | 12.4 µM | – | – | – | – | – |
| Nc1ccn(CCNCCn2cnc3nc(N)[nH]c(=O)c32)c(=O)n1 | – | – | > 100 µM | > 100 µM | > 100 µM | – | TGI [3]: > 100 µM; TGI [4]: > 100 µM; TGI [8]: > 100 µM |
| COc1ccc(-c2nc3sc4c(c3c(=O)[nH]2)CCCCCC4)cc1 | 1.78 µM | > 33.2 µM | – | – | – | – | – |
| CCN(CC)c1ccc(C(=O)c2ccccc2C(=O)O)c(O)c1 | – | – | > 100 µM | > 100 µM | – | > 100 µM | TGI [4]: > 100 µM; TGI [8]: > 100 µM |
| O=C1c2cccnc2C(=O)c2nc3cc(N4CCN(C5CC5)CC4)ccc3nc21 | 0.37 µM | 3.18 µM | – | – | – | – | – |

| Structure (SMILES) | GI50 [1] | TGI [1] | TGI [5] | TGI [6] | TGI [7] | TGI [9] | further results |
| --- | --- | --- | --- | --- | --- | --- | --- |
| O=C(/C=C/c1ccccc1)c1cc(Br)ccc1O | – | 59.3 µM | – | – | – | – | TGI [2]: 33.3 µM |
| Nc1nc2c(c3ncncc13)C(c1cccc(C(F)(F)F)c1)Cc1ncncc1-2 (stereo not drawn) | 4.71 µM | 45.9 µM | – | – | – | – | – |
| COc1cc(C2CC(c3ccc4c(c3)OCO4)=NN2C=O)cc(OC)c1OC (stereo not drawn) | 2.43 µM | 28.5 µM | – | – | – | – | – |
| COc1cccc2c1c(C(=O)C(=O)Nc1cc(C)no1)cn2Cc1ccc(F)cc1 | 3.47 µM | > 56.9 µM | – | – | – | – | – |
| COc1ccc2c(c1)cn1c3ccc(O)cc3nc(N)c21 | 1.48 µM | 33.4 µM | – | – | – | – | – |
| CCOC(=O)c1cc(NS(=O)(=O)c2ccccc2)cc(C(=O)OCC)c1 | > 100 µM | > 100 µM | – | – | – | – | – |
| COc1cc(OC(C)=O)cc2c(OC(C)=O)ccc(OC(C)=O)c12 | – | – | – | > 100 µM | – | – | TGI [4]: > 100 µM |
| COc1ccc(/C=C(/C#N)C(N)=O)cc1OC | – | > 100 µM | – | – | – | – | TGI [2]: > 100 µM |
| COc1ccc(-c2c3c(N)nc(-c4ccncc4)nc3nc3c2c(C)nn3-c2ccccc2)cc1 | 16.5 µM | > 100 µM | – | – | – | – | – |
| COC(C(=O)[O][Ge]([CH3])([CH3])[CH3])c1ccccc1 (stereo not drawn) | – | – | > 100 µM | > 100 µM | > 100 µM | > 100 µM | GI50 [3]: > 100 µM; TGI [3]: > 100 µM; GI50 [4]: > 100 µM; TGI [4]: > 100 µM; GI50 [5]: > 100 µM; GI50 [6]: > 100 µM; GI50 [7]: > 100 µM; GI50 [9]: > 100 µM |
| Cc1[nH]ccc2c1[nH]c1cc(=O)ccc12 | – | – | > 100 µM | > 100 µM | > 100 µM | > 100 µM | TGI [3]: > 100 µM; TGI [4]: > 100 µM; TGI [8]: > 100 µM |
| COc1cc2c(c(OC)c1)C1c3ccccc3NC(=O)N1CC2 (stereo not drawn) | 6.3 µM | > 100 µM | – | – | – | – | – |
| CCOc1ccc(NC(=O)C(=O)CC(=O)C2=C(C)Nc3ccccc3S2)cc1 | – | – | > 50 µM | – | > 50 µM | > 50 µM | TGI [3]: > 50 µM; TGI [8]: > 50 µM |
| COc1cccc(-n2ncc3c(N/N=C/c4ccc(C(=O)NCCN(C)C)cc4)ncnc32)c1 | 0.57 µM | 6 µM | – | – | – | – | – |
| CC1SC2=NC3=C(c4ccccc4C3=O)C(c3ccc(F)cc3)N2C1=O (stereo not drawn) | – | – | > 100 µM | > 100 µM | > 100 µM | > 100 µM | TGI [8]: > 100 µM |
| CCc1ccccc1NC(=O)C(=O)CC(=O)c1sc(Nc2ccccc2)nc1C | – | – | > 100 µM | > 100 µM | > 100 µM | > 100 µM | TGI [3]: > 100 µM; TGI [4]: > 100 µM; TGI [8]: > 100 µM |
| Cn1cc(-c2ccc3occ(-c4cccc(-c5ccncc5)c4)c3n2)cn1 | 0.377 µM | 6.18 µM | – | – | – | – | – |
| C=CCC[CH2][Sn]([c]1ccccc1)([c]1ccccc1)[c]1ccccc1 | – | – | – | 2.63 µM | 2.98 µM | 4.49 µM | GI50 [3]: 1.85 µM; TGI [3]: 3.53 µM; GI50 [4]: 1.73 µM; TGI [4]: 4.83 µM; GI50 [6]: 1.35 µM; GI50 [7]: 1.51 µM; GI50 [8]: 2.08 µM; TGI [8]: 3.55 µM; GI50 [9]: 2.17 µM |
